Experimental data as given in patent US6159953A, “Anti-malarial composition and method of use” (Catholic University of America, priority 1992, dated 2000).
Like-named read-outs stand apart in the source and are kept apart here.

Tests used:
[1] = system: HeLa S3 human cervix epithelioid carcinoma cells; assay: Toxicity to cultured HeLa S3 cells, number of viable cells; format: cell-based
Source text: (§1) 2. Effects of orotate analogues on cell viability and the ability to synthesize nucleic acids from radioactive precursors, and the rescuing effects of normal pyrimidine bases or nucleosides or amino acid derivatives such as histidinol, can be tested in human-derived tissue culture cell lines. Human HT-1080 human sarcoma cells [Rusheed, S., et al., Cancer, 33:1027-30 (1974)], human diploid IMR-90 cells [Nichols, W. W., et al., Science, 196:60-3 (1977)], human cervical […] HeLa S3 cells [Puck, T. T., et al., J. Exp. Med., 103:273-84 (1956)], HL-60 human myeloid leukemia cells [Collins, S. J., et al., Nature, 270:347-9 (1977)], and mouse leukemia L-1210 cells [Moore, G. E., J. Nat. […] The growth medium most suitable for each cell line can be determined by reference to the publications cited above: briefly, HT-1080 cells are maintained in Eagle's Minimal Essential Medium (EMEM) supplemented with 5% fetal bovine serum (FBS) and 2 mM L-glutamine; IMR-90 cells are grown in EMEM supplemented with 10% FBS, 10 mM Hepes buffer, 0.21% NaHCO3, and 2 mM L-glutamine. […]
(§2) Toxicity of pyrimidine analogues to cultured human cells is determined as follows. […] Thereafter, the number of cells in each well is determined. […] Cells that grow in suspension (e.g., HL-60 and L-1210 cells) are transferred to centrifuge tubes, pelleted at low speed, washed, and the viability determined as above. […]

[2] = system: HL-60 human promyelocytic leukemia cells; assay: Toxicity to cultured HL-60 cells, number of viable cells; format: cell-based
Source text: as §1, §2

[3] = Host toxicity in P. yoelii-infected mice (diarrhea, weight loss, tolerance); format: in vivo, Swiss white mice
Experimental: FIG. 6 illustrates the weight changes in mice receiving 5 mg/kg of 5-fluoro-orotate without (Δ) or with (.tangle-solidup.) uridine. The pyrimidine analogue was administered on days 3 to 6. The pyrimidine nucleoside was given to mice in experiment 2 on days 3 to 9. Data points represent mean weights of mice that remained alive during the course of experiments 1 and 2 (see FIG. 5C). Error bars represent standard deviations from the mean.
A second in vivo test system can be used to determine if repeated administration of the pyrimidine analogue would have safe anti-malarial activity. In this test system, groups of animals are infected with malaria parasites. At a time when blood parasitemia is reached, the animals are injected with saline alone (control) or with various concentrations of one or more pyrimidine analogues alone or together with one or more rescuing pyrimidine bases or nucleosides at a single concentration, at intervals, over a period of several days. In order to determine the prophylactic effectiveness of the rescuing pyrimidine base or nucleoside, the animals are pretreated with such a base or nucleoside prior to the administration of the pyrimidine analogue. Anti-malarial activity of the treatments is estimated by determining blood parasitemia on the animals at appropriate times. The safety of the treatments is estimated by monitoring animals for weight loss and diarrhea, as these are early symptoms of pyrimidine analogue toxicity [Houghton, J. A., et al., Cancer Res., 39:2406-13 (1979)].
Swiss white mice (25-30 g) were divided into groups of five. On day 0, each mouse was infected by intraperitoneal injection of 10^5 erythrocytic forms of P. yoelii. Starting on day 3, when the blood parasitemia had reached between 5 and 12%, the mice were injected intraperitoneally every 4 hours for three consecutive days with 200 μl of various formulations. In experiment 1, three groups of mice received 0.2, 1, or 5 mg/kg of 5-fluoro-orotate per injection, respectively. An accompanying control group received saline. In experiment 2, three groups of mice received 0.2, 1, or 5 mg/kg of 5-fluoro-orotate plus 800 mg/kg of uridine in a 200 μl saline formulation. An accompanying control group received 800 mg/kg of uridine alone. In experiment 2, mice were pretreated with one injection of 800 mg/kg of uridine two hours before receiving the first injection of 5-fluoro-orotate. Additionally, even though treatment with the pyrimidine analogue stopped on day 6, these mice continued to receive 1500 mg/kg of uridine, three times a day, for three additional days (i.e., up to day 9).

Compound: O=C(O)c1[nH]c(=O)[nH]c(=O)c1F [5-fluoro-orotate]
- IC50 ([1]; HeLa S3, with 1 mM uridine, read-out: IC50 With 1 mM Uridine): 3.5 µM
- IC50 ([1]; HeLa S3, without uridine, read-out: IC50 Without Uridine): 2 µM
- IC50 ([2]; HL-60, with 1 mM uridine, read-out: IC50 With 1 mM Uridine): 4.5 µM
- IC50 ([2]; HL-60, without uridine, read-out: IC50 Without Uridine): 0.9 µM
- tolerance of highest dose ([3]; 5 mg/kg every 4 hours): tolerated only when uridine was administered in combination with 5-fluoro-orotate
- mortality at higher doses ([3]; experiment 1, 1 and 5 mg/kg, no uridine): dose-dependent increase in mortality
- diarrhea in surviving mice ([3]; experiment 1, higher doses, no uridine): showed signs of diarrhea
- weight loss ([3]; experiment 2, 5 mg/kg with uridine (FIG. 6)): no weight loss
- diarrhea ([3]; experiment 2, with uridine): no mouse had diarrhea
